Assay results reported in patent US20230295140A1, “INHIBITORS OF VAP-1” (Acucela Inc., priority 2021, published 2023).

What was measured:
Type in all cases: biochemical
[1] = target: rhMAO-B (Homo sapiens (Human), UniProt P27338); experiment: MAO-Glo assay, MAO-B inhibition; conditions: class symbols, ranges defined in μM
Protocol: (§1) The capability of compounds described herein to inhibit MAO was determined using a modified Promega MAO-Glo™ assay kit. The substrate ((4S)-4,5-dihydro-2-(6-hydroxybenzothiazolyl)-4-thiazolecarboxylic acid) was converted by MAO to produce methyl ester luciferin. The luciferin was then converted by luciferase to produce oxyluciferin and light. The light was measured using a luminescence setting on the plate reader. A standard curve was prepared by serially diluting luciferin in reaction buffer. The standard kit reaction buffer was used—100 mM HEPES (pH 7.5), 5% glycerol. The substrate was dispensed into the wells so that the final concentration for MAO-A inhibition assay would be 10 μM and MAO-B inhibition assay would be […]. Inhibitors were diluted in DMSO to 4× and distributed to the appropriate wells. Clorgyline and Deprenyl served as positive controls. rhMAO-A and rhMAO-B were purchased from Sigma. MAO-A or MAO-B was added to the appropriate wells. The plate was incubated for 1 hour, at room temperature with gentle shaking (90 rpm). The detection agent was added at equal volume (48 μL detection agent to 48 μL reaction). The plate was incubated for 20 minutes, at room temperature with gentle shaking (90 rpm). The plate luminescence was read. Data processing was performed using Prism software.
(§2) The capability of compounds described herein to inhibit MAO was determined using a modified Promega MAO-Glo™ assay. Test compounds, substrate and enzyme were incubated per manufacturer instructions for 1 hour, at room temperature with gentle shaking (90 rpm) before addition of detection agent. The detection agent was added at equal volume (48 μL detection agent to 48 μL reaction). The plate was incubated for 20 minutes, at room temperature with gentle shaking (90 rpm). The plate luminescence was read. Data processing was performed using Prism software.

[2] = target: rhVAP-1 (Homo sapiens (Human), UniProt Q16853); experiment: VAP-1 fluorometric assay (Amplex Red/HRP, benzylamine substrate); conditions: class symbols, ranges defined in μM
Protocol: The capability of compounds described herein to inhibit the enzymatic activity of vascular adhesion protein-1 (VAP-1) was determined by fluorometric assay. The assay procedure provided by R&D Systems was modified slightly for use as an inhibitor screening assay. The assay measured the H2O2 generated from the oxidative deamination of benzylamine by rhVAP-1 by converting Amplex® Red to the fluorescent product, resorufin, via horseradish peroxidase (HRP) and H2O2. Reaction buffer was 10 mM NaHCO3, pH 7.4. A standard curve was prepared by serially diluting H2O2 in reaction buffer. A 10 μM solution of resorufin was prepared in reaction buffer and was dispensed to 2 wells. These wells served as positive control for maximum fluorescence. Reaction buffer was added to the individual wells so that the final volume in each well was 100 μL. Amplex Red was diluted to 1 mM in reaction buffer. A 10 U stock of HRP was prepared in reaction buffer. A reaction cocktail was prepared by mixing equal parts 1 mM Amplex Red with 10 U HRP with 3 parts reaction buffers. The reaction cocktail was added to the appropriate wells, so that that final concentration in the well was 0.05 mM Amplex Red and 0.5 U HRP. A 200 μM solution of benzylamine was prepared in reaction buffer. Benzylamine was added to the appropriate wells so that the final concentration was 50 μM. Inhibitors were diluted in DMSO to 20× and distributed to the appropriate wells. LJP-1207 served a positive control. rhVAP-1 was purchased from R&D Systems. The concentration used for each lot was determined so that the activity was equal to the first lot. Two wells were left blank as controls. The plate was incubated for 30 minutes at 37° C., protected from light under foil. The plate was read at 530/35 emission and 590/35 excitation. Data processing was performed using Excel and Prism software.
The capability of compounds described herein to inhibit the enzymatic activity of vascular adhesion protein-1 (VAP-1) was determined by fluorometric assay. The assay procedure provided by R&D Systems was modified slightly for use as an inhibitor screening assay. The assay measured the H2O2 generated from the oxidative deamination of benzylamine by rhVAP-1 by converting Amplex® Red to the fluorescent product, resorufin, via horseradish peroxidase (HRP) and H2O2. Amplex Red, HRP, Benzylamine, inhibitors (with DMSO as vehicle, 0.5% v/v) and rhVAP-1 were added to the wells. Assay was conducted in 10 mM NaHCO3, pH 7.4. A standard curve was prepared by serially diluting H2O2 in reaction buffer. The plate was incubated for 30 minutes at 37° C., protected from light under foil. The plate was read at 530/35 emission and 590/35 excitation. Data processing was performed using Prism software.

[3] = target: rhMAO-A (Homo sapiens (Human), UniProt P21397); experiment: MAO-Glo assay, MAO-A inhibition
Protocol: as §1, §2

[4] = class symbols, ranges defined in μM

Chain of rhMAO-A (P21397 whole entry): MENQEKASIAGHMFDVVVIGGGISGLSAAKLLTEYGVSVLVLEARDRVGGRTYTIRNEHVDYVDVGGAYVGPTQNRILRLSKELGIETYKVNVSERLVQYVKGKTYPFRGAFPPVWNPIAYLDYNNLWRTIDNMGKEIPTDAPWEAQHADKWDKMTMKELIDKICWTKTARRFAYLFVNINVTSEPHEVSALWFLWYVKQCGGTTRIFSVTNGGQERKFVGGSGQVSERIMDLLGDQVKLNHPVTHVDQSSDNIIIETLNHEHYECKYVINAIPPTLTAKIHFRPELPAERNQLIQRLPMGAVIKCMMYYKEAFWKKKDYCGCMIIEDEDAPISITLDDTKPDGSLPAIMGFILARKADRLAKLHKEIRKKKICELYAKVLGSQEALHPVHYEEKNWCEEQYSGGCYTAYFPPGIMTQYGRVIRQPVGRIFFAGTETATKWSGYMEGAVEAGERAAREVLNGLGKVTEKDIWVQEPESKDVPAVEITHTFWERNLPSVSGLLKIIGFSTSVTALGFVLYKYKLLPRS
Chain of rhMAO-B (P27338 whole entry): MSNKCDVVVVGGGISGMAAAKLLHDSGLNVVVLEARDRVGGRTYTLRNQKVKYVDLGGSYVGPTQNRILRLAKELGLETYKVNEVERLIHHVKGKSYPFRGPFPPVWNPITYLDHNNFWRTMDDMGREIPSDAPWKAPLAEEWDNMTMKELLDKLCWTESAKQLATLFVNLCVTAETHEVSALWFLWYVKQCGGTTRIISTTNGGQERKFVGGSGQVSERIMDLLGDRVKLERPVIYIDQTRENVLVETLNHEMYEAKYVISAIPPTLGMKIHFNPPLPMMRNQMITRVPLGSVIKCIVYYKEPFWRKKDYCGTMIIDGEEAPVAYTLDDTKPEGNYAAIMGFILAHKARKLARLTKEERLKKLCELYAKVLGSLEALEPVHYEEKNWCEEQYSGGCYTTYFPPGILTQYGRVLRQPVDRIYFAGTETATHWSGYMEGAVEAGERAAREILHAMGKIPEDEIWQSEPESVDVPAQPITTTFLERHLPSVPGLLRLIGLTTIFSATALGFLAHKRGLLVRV
Chain of rhVAP-1 (Q16853 whole entry): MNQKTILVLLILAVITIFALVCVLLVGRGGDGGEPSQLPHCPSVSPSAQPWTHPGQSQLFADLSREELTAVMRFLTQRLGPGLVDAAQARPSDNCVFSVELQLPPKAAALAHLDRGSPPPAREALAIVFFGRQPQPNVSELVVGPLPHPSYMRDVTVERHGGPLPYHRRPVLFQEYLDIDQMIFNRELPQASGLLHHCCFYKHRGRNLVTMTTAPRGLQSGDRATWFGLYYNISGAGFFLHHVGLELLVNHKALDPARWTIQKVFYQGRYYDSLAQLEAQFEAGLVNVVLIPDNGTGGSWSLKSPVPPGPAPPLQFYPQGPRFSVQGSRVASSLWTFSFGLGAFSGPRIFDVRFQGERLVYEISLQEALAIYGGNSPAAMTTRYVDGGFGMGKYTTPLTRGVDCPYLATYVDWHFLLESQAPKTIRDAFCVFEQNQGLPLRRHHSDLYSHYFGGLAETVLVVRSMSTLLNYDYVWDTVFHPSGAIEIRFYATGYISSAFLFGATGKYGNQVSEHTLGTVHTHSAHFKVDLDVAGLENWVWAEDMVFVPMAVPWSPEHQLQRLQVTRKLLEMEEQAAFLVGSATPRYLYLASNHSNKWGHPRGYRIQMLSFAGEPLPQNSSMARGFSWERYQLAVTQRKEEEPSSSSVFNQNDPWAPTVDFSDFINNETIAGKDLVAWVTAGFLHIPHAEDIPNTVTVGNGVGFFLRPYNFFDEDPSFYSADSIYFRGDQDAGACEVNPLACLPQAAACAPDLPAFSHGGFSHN

| SMILES | IC50 [1] [µM] | IC50 [2] [µM] | IC50 [3, 4] [µM] | IC50 ([3]; bound printed in cell) [µM] |
| --- | --- | --- | --- | --- |
| CCCCn1cnc2cc(OC/C(=C/F)CN)ccc21 [Example 89, (E)-2-(((1-butyl-1H-benzo[d]imidazol-5-yl)oxy)methyl)-3-fluoroprop-2-en-1-amine 4-methylbenzenesulfonate] | 1 to 10 | < 0.1 |  | > 50 |
| CC1CN(c2nc3ccc(OC/C(=C/F)CN)cc3o2)C(C)(C)C1 (stereo not drawn) [Example 86, (E)-3-fluoro-2-(((2-(2,2,4-trimethylpyrrolidin-1-yl)benzo[d]oxazol-6-yl)oxy)methyl)prop-2-en-1-amine 4-methylbenzenesulfonate] | 1 to 10 | < 0.1 |  | > 50 |
| NC/C(=C\F)COc1ccc2nc(NCCCO)sc2c1 [Example 88, (E)-3-((6-((2-(aminomethyl)-3-fluoroallyl)oxy)benzo[d]thiazol-2-yl)amino)propan-1-ol 4-methylbenzenesulfonate] | 1 to 10 | < 0.1 | 1 to 10 |  |
| NC/C(=C/F)COc1ccc2nc(NCc3ccnc(C(F)(F)F)c3)oc2c1 [Example 62, (Z)-6-((2-(aminomethyl)-3-fluoroallyl)oxy)-N-((2-(trifluoromethyl)pyridin-4-yl)methyl)benzo[d]oxazol-2-amine 4-methylbenzenesulfonate] | 1 to 10 | < 0.1 | 10 to 30 |  |
| NC/C(=C\F)COc1ccc2nc(NC3CCC(O)C3)oc2c1 (stereo not drawn) [Example 87, (E)-3-((6-((2-(aminomethyl)-3-fluoroallyl)oxy)benzo[d]oxazol-2-yl)amino)cyclopentan-1-ol 4-methylbenzenesulfonate] | 1 to 10 | < 0.1 | 1 to 10 |  |
| NC/C(=C\F)COc1ccc2nc(NCCO)oc2c1 [Example 47, (E)-2-((6-((2-(aminomethyl)-3-fluoroallyl)oxy)benzo[d]oxazol-2-yl)amino)ethan-1-ol 4-methylbenzenesulfonate] | 10 to 30 | < 0.1 | 10 to 30 |  |
| CCCCc1nc2ccc(C/C(=C/F)CN)cc2o1 [Example 31, (Z)-2-((2-butylbenzo[d]oxazol-6-yl)methyl)-3-fluoroprop-2-en-1-amine] | 1 to 10 | < 0.1 | 10 to 30 |  |
| CCCCc1nc2ccc(N(C)C/C(=C/F)CN)cc2o1 [Example 20, (E)-N1-(2-butylbenzo[d]oxazol-6-yl)-2-(fluoromethylene)-N1-methylpropane-1,3-diamine] | 1 to 10 | < 0.1 | 10 to 30 |  |
| CC(C)(C)CNc1nc2ccc(OC/C(=C/F)CN)cc2o1 [Example 59, (E)-6-((2-(aminomethyl)-3-fluoroallyl)oxy)-N-neopentylbenzo[d]oxazol-2-amine (4-methylbenzenesulfonate)] | 1 to 10 | 1 to 10 | 1 to 10 |  |
| Cc1ccc(CNc2nc3ccc(OC/C(=C/F)CN)cc3o2)cn1 [Example 55, (E)-6-((2-(aminomethyl)-3-fluoroallyl)oxy)-N-((6-methylpyridin-3-yl)methyl)benzo[d]oxazol-2-amine 4-methylbenzenesulfonate] | 1 to 10 | < 0.1 |  | > 35 |
| NC/C(=C/F)COc1ccc2nc(NC3CCC(O)CC3)oc2c1 (stereo not drawn) [Example 78, (Z)-4-((6-((2-(aminomethyl)-3-fluoroallyl)oxy)benzo[d]oxazol-2-yl)amino)cyclohexan-1-ol 4-methylbenzenesulfonate] | 1 to 10 | < 0.1 |  | > 50 |

More lines, now with the values ahead:

| IC50 [1] [µM] | IC50 [2] [µM] | IC50 [3, 4] [µM] | IC50 ([3]; bound printed in cell) [µM] | SMILES |
| --- | --- | --- | --- | --- |
| 1 to 10 | < 0.1 | 10 to 30 |  | NC/C(=C/F)COc1ccc2nc(NCc3ccc(C(F)(F)F)nc3)oc2c1 [Example 83, (Z)-6-((2-(aminomethyl)-3-fluoroallyl)oxy)-N-((6-(trifluoromethyl)pyridin-3-yl)methyl)benzo[d]oxazol-2-amine 4-methylbenzenesulfonate] |
| 0.1 to 1 | < 0.1 | 10 to 30 |  | CC1CN(c2nc3ccc(OC/C(=C/F)CN)cc3o2)C1 [Example 33, (E)-3-fluoro-2-(((2-(3-methylazetidin-1-yl)benzo[d]oxazol-6-yl)oxy)methyl)prop-2-en-1-amine 4-methylbenzenesulfonate] |
| < 0.1 | < 0.1 | 1 to 10 |  | CCCCc1nc2ccc(OC/C(=C/F)CN)cc2s1 [Example 3, (E)-2-(((2-butylbenzo[d]thiazol-6-yl)oxy)methyl)-3-fluoroprop-2-en-1-amine] |
| 0.1 to 1 | < 0.1 | 10 to 30 |  | CCCNc1nc2ccc(OC/C(=C/F)CN)cc2o1 [Example 5, (E)-6-((2-(aminomethyl)-3-fluoroallyl)oxy)-N-propylbenzo[d]oxazol-2-amine] |
| 0.1 to 1 | < 0.1 | 1 to 10 |  | COc1cccc(CNc2nc3ccc(OC/C(=C/F)CN)cc3o2)c1 [Example 25, (E)-6-((2-(aminomethyl)-3-fluoroallyl)oxy)-N-(3-methoxybenzyl)benzo[d]oxazol-2-amine 4-methylbenzenesulfonate] |
| 0.1 to 1 | < 0.1 | 10 to 30 |  | CCCNc1nc2ccc(OC/C(=C/F)CN)c(F)c2o1 [Example 6, (E)-6-((2-(aminomethyl)-3-fluoroallyl)oxy)-7-fluoro-N-propylbenzo[d]oxazol-2-amine] |
| 0.1 to 1 | < 0.1 | 10 to 30 |  | NC/C(=C\F)COc1ccc2nc(C3CCC(c4ccccc4)CC3)oc2c1 (stereo not drawn) [Example 41, (E)-3-fluoro-2-(((2-(4-phenylcyclohexyl)benzo[d]oxazol-6-yl)oxy)methyl)prop-2-en-1-amine 4-methylbenzenesulfonate] |
| 0.1 to 1 | < 0.1 | 1 to 10 |  | CCCCc1nc2cc(C)c(OC/C(=C/F)CN)cc2o1 [Example 68, (E)-2-(((2-butyl-5-methylbenzo[d]oxazol-6-yl)oxy)methyl)-3-fluoroprop-2-en-1-amine 4-methylbenzenesulfonate] |
| 0.1 to 1 | < 0.1 | 1 to 10 |  | NC/C(=C\F)COc1ccc2nc(C3CCCC3)oc2c1 [Example 37, (E)-2-(((2-cyclopentylbenzo[d]oxazol-6-yl)oxy)methyl)-3-fluoroprop-2-en-1-amine 4-methylbenzenesulfonate] |
| 0.1 to 1 | < 0.1 | 10 to 30 |  | CCCCc1nc2ccc(SC/C(=C/F)CN)cc2o1 [Example 22, (E)-2-(((2-butylbenzo[d]oxazol-6-yl)thio)methyl)-3-fluoroprop-2-en-1-amine 4-methylbenzenesulfonate] |
| < 0.1 | 0.1 to 1 | 1 to 10 |  | CCCCc1nc2ccc(OC/C(=C/F)CN)c(C)c2o1 [Example 10, (E)-2-(((2-butyl-7-methylbenzo[d]oxazol-6-yl)oxy)methyl)-3-fluoroprop-2-en-1-amine] |
| 0.1 to 1 | < 0.1 | 1 to 10 |  | CCCCc1nc2ccc(CC(=CF)CN)cc2o1 [Example 18, 2-((2-butylbenzo[d]oxazol-6-yl)methyl)-3-fluoroprop-2-en-1-amine] |
